Measured values taken from patent US20150105252A1, “SUBSTITUTED PYRAZOLES AS HERBICIDES” (E I DU PONT DE NEMOURS AND COMPANY, priority 2013, published 2015).

Key:
blackgrass = assay: Test D preemergence; format: in vivo, Alopecurus myosuroides; settings: scale 0 to 100
From the text: (§1) Seeds of plant species selected from bluegrass (annual bluegrass, Poa annua), blackgrass (Alopecurus myosuroides), canarygrass (littleseed canarygrass, Phalaris minor), chickweed (common chickweed, Stellaria media), galium (catchweed bedstraw, Galium aparine), bromegrass, downy (downy bromegrass, Bromus tectorum), field poppy (Papaver rhoeas), field violet (Viola arvensis), foxtail, green (green foxtail, Setaria viridis), deadnettle (henbit deadnettle, Lamium amplexicaule), ryegrass, Italian (Italian ryegrass, Lolium multiflorum), kochia (Kochia scoparia), lambsquarters (Chenopodium album), oilseed rape (Brassica napus), pigweed (redroot pigweed, Amaranthus retroflexus), chamomile (scentless chamomile, Matricaria inodora), speedwell (bird's-eye speedwell, Veronica persica), barley, spring (spring barley, Hordeum vulgare), wheat, spring (spring wheat, Triticum aestivum), buckwheat, wild (wild buckwheat, Polygonum convolvulus), mustard, wild (wild mustard, Sinapis arvensis), oat, wild (wild oat, Avena fatua), radish, wild (wild radish, Raphanus raphanistrum), windgrass (Apera spica-venti), Russian thistle (Salsola kali), barley, winter (winter barley, Hordeum vulgare), and wheat, winter (winter wheat, Triticum aestivum) were planted into a silt loam soil and treated preemergence with test chemicals formulated in a non-phytotoxic solvent mixture which included a surfactant.
(§2) At the same time, these species were planted in pots containing Redi-Earth® planting medium (Scotts Company, 14111 Scottslawn Road, Marysville, Ohio 43041) comprising spaghnum peat moss, vermiculite, wetting agent and starter nutrients and treated with postemergence applications of the test chemicals formulated in the same manner. Plants ranged in height from 2 to 18 cm (1- to 4-leaf stage). Treated plants and controls were maintained in a controlled growth environment for 14 to 21 days after which time all species were compared to controls and visually evaluated. Plant response ratings, summarized in Table D, are based on a scale of 0 to 100 where 0 is no effect and 100 is complete control. A dash (-) response means no test result.

buckwheat, wild = assay: Test D postemergence; format: in vivo, Polygonum convolvulus; settings: scale 0 to 100
From the text: as §1, §2

deadnettle = assay: Test D preemergence; format: in vivo, Lamium amplexicaule; settings: scale 0 to 100
From the text: as §1, §2

canarygrass = assay: Test D preemergence; format: in vivo, Phalaris minor; settings: scale 0 to 100
From the text: as §1, §2

ragweed = assay: Test E preemergence; format: in vivo, Ambrosia elation; settings: 21 days, scale 0 to 100
From the text: Seeds of plant species selected from bermudagrass (Cynodon dactylon), Surinam grass (Brachiaria decumbens), crabgrass, large (large crabgrass, Digitaria sanguinalis), crabgrass, naked (naked crabgrass, Digitaria nuda), foxtail, green (green foxtail, Setaria viridis), johnsongrass (Sorghum halepense), kochia (Kochia scoparia), morningglory (pitted morningglory, Ipomoea lacunosa), nutsedge, purple (purple nutsedge, Cyperus rotundus), ragweed (common ragweed, Ambrosia elation), mustard, black (black mustard, Brassica nigra), guineagrass (Panicum maximum), dallisgrass (Paspalum dilatatum), barnyardgrass (Echinochloa crus-galli), sandbur (southern sandbur, Cenchrus echinatus), sowthistle (common sowthistle, Sonchus oleraceous), ryegrass, Italian (Italian ryegrass, Lolium multiflorum), signalgrass (broadleaf signalgrass, Brachiaria platyphylla), dayflower, VA (Virginia (VA) dayflower, Commelina virginica), bluegrass (annual bluegrass, Poa annua), quackgrass (Elytrigia repens), mallow (common mallow, Malva sylvestris), buckwheat, wild (wild buckwheat, Polygonum convolvulus), leafy spurge (Euphorbia esula), common chickweed (Stellaria media), wild poinsettia (Euphorbia heterophylla), pigweed, palmer (palmer pigweed, Amaranthus palmeri), and pigweed (redroot pigweed, Amaranthus retroflexus) were planted into a blend of loam soil and sand and treated preemergence with test chemicals formulated in a non-phytotoxic solvent mixture which included a surfactant.
Treated plants and controls were maintained in a greenhouse for 21 days, after which time all species were compared to controls and visually evaluated. Plant response ratings, summarized in Table E, are based on a scale of 0 to 100 where 0 is no effect and 100 is complete control. A dash (-) response means no test result.

bluegrass = assay: Test D preemergence; format: in vivo, Poa annua; settings: scale 0 to 100
From the text: as §1, §2

Surinam grass = assay: Test F preemergence; format: in vivo, Brachiaria decumbens
From the text: (§3) Seeds of plant species selected from corn (Zea mays), soybean (Glycine max), velvetleaf (Abutilon theophrasti), lambsquarters (Chenopodium album), wild poinsettia (Euphorbia heterophylla), pigweed, palmer (palmer pigweed, Amaranthus palmeri), common waterhemp (Amaranthus rudis), surinam grass (Brachiaria decumbens), large crabgrass (Digitaria sanguinalis), crabgrass, Brazil (Brazilian crabgrass, Digitaria horizontalis), fall panicum (Panicum dichotomiflorum), giant foxtail (Setaria faberii), green foxtail (Setaria viridis), goosegrass (Eleusine indica), johnsongrass (Sorghum halepense), common ragweed (Ambrosia elation), barnyardgrass (Echinochloa crus-galli), southern sandbur (Cenchrus echinatus), arrowleaf sida (Sida rhombifolia), Italian ryegrass (Lolium multiflorum), dayflower, VA (Virginia (VA) dayflower, Commelina virginica), field bindweed (Convolvulus arvensis), cocklebur (common cocklebur, Xanthium strumarium), morningglory (Ipomoea coccinea), nightshade (eastern black nightshade, Solanum ptycanthum), kochia (Kochia scoparia), yellow nutsedge (Cyperus esculentus), and hairy beggarticks (Bidens pilosa), were planted into a silt loam soil and treated preemergence with test chemicals formulated in a non-phytotoxic solvent mixture which included a surfactant.
(§4) At the same time, plants from these crop and weed species and also horseweed (Canada horseweed, Conyza canadensis), smartweed (ladysthumb smartweed, Polygonum persicaria), waterhemp_RES1, (ALS & Triazine resistant common waterhemp, Amaranthus rudis), and waterhemp_RES2, (ALS & HPPD resistant common waterhemp, Amaranthus rudis) were treated with postemergence applications of test chemicals formulated in the same manner. Plants ranged in height from 2 to 18 cm for postemergence treatments (1- to 4-leaf stage). Treated plants and controls were maintained in a greenhouse for 14 to 21 days, after which time all species were compared to controls and visually evaluated. Plant response ratings, summarized in Table F, are based on a scale of 0 to 100 where 0 is no effect and 100 is complete control. A dash (-) response means no test result.

kochia = assay: Test F preemergence; format: in vivo, Kochia scoparia
From the text: as §3, §4

[1] = Preemergence, 31 g ai/ha, scale 0 to 100
[2] = Preemergence, 62 g ai/ha, scale 0 to 100
[3] = Preemergence, 125 g ai/ha, scale 0 to 100
[4] = preemergence, 8 g ai/ha, scale 0 to 100, 100 is complete control
[5] = preemergence, 16 g ai/ha, scale 0 to 100, 100 is complete control
[6] = Preemergence, 250 g ai/ha, scale 0 to 100

| SMILES | Plant response rating, Blackgrass (blackgrass; 62 g ai/ha) | Plant response rating, Blackgrass (blackgrass; 125 g ai/ha) | Plant response rating, Blackgrass (blackgrass; 250 g ai/ha) | Buckwheat, Wild plant response rating (buckwheat, wild; Postemergence, 31 g ai/ha) | Buckwheat, Wild plant response rating (buckwheat, wild; Postemergence, 125 g ai/ha) | Buckwheat, Wild plant response rating (buckwheat, wild; Postemergence, 250 g ai/ha) | Buckwheat, Wild plant response rating (buckwheat, wild; postemergence, 62 g ai/ha) | Plant response rating, Deadnettle (deadnettle; 31 g ai/ha) | Plant response rating, Deadnettle (deadnettle; 62 g ai/ha) | Plant response rating, Deadnettle (deadnettle; 125 g ai/ha) | Plant response rating, Deadnettle (deadnettle; 250 g ai/ha) | Plant response rating, Canarygrass (canarygrass; 31 g ai/ha) | Plant response rating, Canarygrass (canarygrass; 62 g ai/ha) | Plant response rating, Surinam Grass (Surinam grass; [2]) | Plant response rating, Surinam Grass (Surinam grass; [3]) | Plant response rating, Surinam Grass (Surinam grass; [4]) | Plant response rating, Surinam Grass (Surinam grass; [5]) | Plant response rating, Kochia (kochia; [2]) | Plant response rating, Kochia (kochia; [3]) | Plant response rating, Kochia (kochia; [4]) | other results |
| --- | --- | --- | --- | --- | --- | --- | --- | --- | --- | --- | --- | --- | --- | --- | --- | --- | --- | --- | --- | --- | --- |
| CCc1cc(C(=O)NC(C)C)nn1Cc1ccnc(C(F)(F)F)c1 [Compound 103] | 50 | 85 | 100 | 25 | 55 | 60 | 50 | 5 | 15 | 30 | 30 | 5 | 55 |  |  |  |  |  |  |  | Plant response rating, Canarygrass (canarygrass; 125 g ai/ha): 80; Plant response rating, Canarygrass (canarygrass; 250 g ai/ha): 100; Plant response rating, Ragweed (ragweed; 16 g ai/ha): 5; Plant response rating, Ragweed (ragweed; 31 g ai/ha): 98; Plant response rating, Ragweed (ragweed; 62 g ai/ha): 100; Plant response rating, Ragweed (ragweed; 125 g ai/ha): 100; Plant response rating, Ragweed (ragweed; 250 g ai/ha): 100; Plant response rating, Bluegrass (bluegrass; 31 g ai/ha): 10; Plant response rating, Bluegrass (bluegrass; 62 g ai/ha): 35; Plant response rating, Bluegrass (bluegrass; 125 g ai/ha): 65; Plant response rating, Bluegrass (bluegrass; 250 g ai/ha): 85 |
| CCOc1cc(C(=O)NCC(F)(F)F)nn1Cc1ccnc(C(F)(F)F)c1 [Compound 104] |  |  |  |  |  |  |  |  |  |  |  |  |  | 75 | 80 | 0 | 10 | 100 | 100 | 0 | Plant response rating, Surinam Grass (Surinam grass; [1]): 35; Plant response rating, Ragweed (ragweed; 16 g ai/ha): 100; Plant response rating, Ragweed (ragweed; 31 g ai/ha): 100; Plant response rating, Ragweed (ragweed; 62 g ai/ha): 100; Plant response rating, Ragweed (ragweed; 125 g ai/ha): 100; Plant response rating, Ragweed (ragweed; 250 g ai/ha): 100; Plant response rating, Kochia (kochia; [1]): 25 |
| CCCc1cc(C(=O)NCC(F)(F)F)nn1Cc1cc(C(F)(F)F)nn1C [Compound 138] | 30 | 85 | 100 | 65 | 70 | 80 | 65 | 85 | 100 | 100 | 100 | 15 | 70 |  |  |  |  |  |  |  | Plant response rating, Blackgrass (blackgrass; 31 g ai/ha): 15; Plant response rating, Canarygrass (canarygrass; 125 g ai/ha): 100; Plant response rating, Canarygrass (canarygrass; 250 g ai/ha): 100; Plant response rating, Bluegrass (bluegrass; 31 g ai/ha): 20; Plant response rating, Bluegrass (bluegrass; 62 g ai/ha): 55; Plant response rating, Bluegrass (bluegrass; 125 g ai/ha): 90; Plant response rating, Bluegrass (bluegrass; 250 g ai/ha): 100 |
| CCNC(=O)c1cc(CCCl)n(Cc2ccnc(C(F)(F)F)c2)n1 [Compound 179] |  |  |  |  |  |  |  |  |  |  |  |  |  | 20 | 60 | 0 |  | 35 | 90 | 0 | Plant response rating, Surinam Grass (Surinam grass; [1]): 20; Plant response rating, Kochia (kochia; [1]): 30 |
| CCOc1cc(C(=O)NC(C)C)nn1Cc1ccnc(C(F)(F)F)c1 [Compound 188] | 75 | 100 | 100 | 60 | 70 | 70 | 60 | 100 | 100 | 100 | 100 | 55 | 95 | 100 | 100 | 20 |  | 98 | 100 | 0 | Plant response rating, Blackgrass (blackgrass; 31 g ai/ha): 55; Plant response rating, Canarygrass (canarygrass; 125 g ai/ha): 100; Plant response rating, Canarygrass (canarygrass; 250 g ai/ha): 100; Plant response rating, Bluegrass (bluegrass; 31 g ai/ha): 55; Plant response rating, Bluegrass (bluegrass; 62 g ai/ha): 70; Plant response rating, Bluegrass (bluegrass; 125 g ai/ha): 100; Plant response rating, Bluegrass (bluegrass; 250 g ai/ha): 100 |
| CCNC(=O)c1cc(CC)n(Cc2ccnc(C(F)(F)F)c2)n1 [Compound 196] |  |  |  |  |  |  |  |  |  |  |  |  |  | 25 | 70 | 0 | 0 | 85 | 100 | 15 | Plant response rating, Kochia (kochia; [5]): 40 |
| Cc1cc(C(=O)NC(C)C)nn1Cc1ccnc(C(F)(F)F)c1 [Compound 197] |  |  |  |  |  |  |  |  |  |  |  |  |  | 20 | 20 | 0 | 0 | 75 | 98 | 0 | Plant response rating, Kochia (kochia; [5]): 0 |
| CCc1cc(C(=O)NC2CC2)nn1Cc1ccnc(OCC(F)(F)F)c1 [Compound 200] |  |  |  |  |  |  |  |  |  |  |  |  |  | 5 | 65 |  | 0 | 70 | 90 |  | Plant response rating, Surinam Grass (Surinam grass; [6]): 95; Plant response rating, Kochia (kochia; [6]): 100; Plant response rating, Kochia (kochia; [5]): 20 |
